Measurements reported in ChEMBL document CHEMBL1125230, “Analysis of the in vitro antitumor activity of novel purine-6-sulfenamide, -sulfinamide, and -sulfonamide nucleosides and certain related compounds using a computer-aided receptor modeling procedure” (1991).

Tested on: L1210
Assay: In vitro growth inhibition of L1210 tumor cells
Type: functional, Mus musculus

Row | SMILES | Log 1/ID50
1 | NSc1nc(N)nc2c1ncn2C1O[C@H](CO)[C@@H](O)[C@H]1O (stereo partly specified) | 6.52
2 | Nc1cc2c(ncn2C2O[C@H](CO)[C@@H](O)[C@H]2O)c([S+](N)[O-])n1 (mixture of isomers) | 3
3 | Nc1nc(S(N)(=O)=O)c2ncn(C3O[C@H](CO)[C@@H](O)[C@H]3O)c2n1 (stereo partly specified) | 5.7
4 | NSc1nc(N)nc2c1ncn2[C@H]1C[C@H](O)[C@@H](CO)O1 | 6.06
5 | NSc1ncnc2c1cnn2C1O[C@H](CO)[C@@H](O)[C@H]1O (stereo partly specified) | 4.51
6 | NC(=O)c1ncnc2c1cnn2C1O[C@H](CO)[C@@H](O)[C@H]1O (stereo partly specified) | 4.38
7 | NSc1ncnc2c([C@@H]3O[C@H](CO)[C@@H](O)[C@H]3O)n[nH]c12 | 4.69
8 | Nc1nc([S+](N)[O-])c2ncn([C@@H]3C[C@@H](O)[C@H](CO)O3)c2n1 (mixture of isomers) | 4.45
9 | NS(=O)(=O)c1ncnc2c1ncn2[C@H]1C[C@H](O)[C@@H](CO)O1 | 4.56
10 | Nc1nc([S+](N)[O-])c2ncn(C3O[C@H](CO)[C@@H](O)[C@H]3O)c2n1 (mixture of isomers) | 6
11 | NSc1ncnc2c1ncn2[C@H]1C[C@H](O)[C@@H](CO)O1 | 6.66
12 | C[C@H]1OC(n2cnc3c(S(N)(=O)=O)nc(N)nc32)[C@H](O)[C@@H]1O (stereo partly specified) | 5.42
13 | NS(=O)(=O)c1ncnc2c1ncn2[C@@H]1O[C@H](CO)[C@@H](O)[C@@H]1O | 4
14 | C[C@H]1OC(n2cnc3c([S+](N)[O-])nc(N)nc32)[C@H](O)[C@@H]1O (mixture of isomers) | 5.55
15 | Nc1nc([S+](N)[O-])c2ncn([C@@H]3C[C@@H](O)[C@H](CO)O3)c2n1 (stereo in doubt; 9) | 5.52
16 | NSc1ncnc2c1ncn2C1O[C@H](CO)[C@@H](O)[C@H]1O (stereo partly specified) | 5.22
17 | NS(=O)(=O)c1ncnc2c1ncn2[C@@H]1O[C@H](CO)[C@@H](O)[C@H]1O | 4.92
18 | N[S+]([O-])c1ncnc2c1ncn2C1O[C@H](CO)[C@@H](O)[C@H]1O (mixture of isomers) | 4
19 | C[C@H]1OC(n2cnc3c(SN)nc(N)nc32)[C@H](O)[C@@H]1O (stereo partly specified) | 6
20 | N=C1N=C(S)C2N=CN([C@H]3C[C@H](O)[C@@H](CO)O3)C2=N1 (stereo partly specified) | 7.3
21 | N[S+]([O-])c1ncnc2c1ncn2[C@@H]1C[C@@H](O)[C@H](CO)O1 (mixture of isomers) | 4.6
